Test results: patent US6303630A, “Diarylsulfone non-nucleoside reverse transcriptase inhibitors of human immunodeficiency virus” (University of the Sciences in Philadelphia, priority 2000, dated 2001)
Where two headings read alike, the source gives them in different places.

Experiments:
HIV-1 = assay: NCI in vitro anti-HIV drug screen: XTT-formazan assay, protection of T4 lymphocytes (CEM) from HIV-1 cytopathic effects; assay type: cell-based, human immunodeficiency virus (HIV-1); details: for TI50 (IC/EC), Therapeutic Index: IC50/EC50
Protocol: Compounds of the present invention were evaluated for anti-HIV efficacy by the National Cancer Institute's (NCI) In Vitro Anti AIDS Drug Discovery Program.
(§1) The NCI procedure is fully described, for example, in a bulletin provided by the National Institutes of Health, National Cancer Institute, Bethesda, Md. 20892, all of which is incorporated herein by reference. As related in the NCI bulletin, the procedure is based on O. W. Weislow et al., "New soluble-formazan assay for HIV-1 cytopathic effects: application to high flux screening of synthetic and natural products for AIDS-antiviral activity", J. Natl. Cancer Inst. 81:577-586 (1989), and is used to test for compounds active against human immunodeficiency virus (HIV), and is designed to detect compounds active at any stage of the virus reproductive cycle. As further related in the NCI bulletin, the assay includes killing of T4 lymphocytes by HIV. Amounts of HIV are added to cells, with a minimum of two cycles of virus reproduction found to be necessary to obtain the required cell killing. Compounds that interact with virions, cells, or virus gene-products to interfere with viral activities will protect cells from cytolysis. All were compared with a positive (e.g., AZT-treated) control evaluation at the same time under identical conditions. The procedure is set forth as follows:
(§2) A candidate compound is first dissolved in a suitable solvent, preferably dimethyl sulfoxide, then diluted 1:100 in cell culture medium before preparing serial half-log10 dilutions. T4 lymphocytes (CEM cell line) are then added and after a brief interval HIV-1 is added, resulting in a 1:200 final dilution of the compound. Uninfected cells with the compound serve as a toxicity control, and infected and uninfected without the compound serve as basic controls. Cultures are then incubated at 37° in a 5% carbon dioxide atmosphere for 6 days. The tetrazolium salt, XTT, is added to all wells, and cultures are incubated to allow formazan color development by viable cells. Individual wells are analyzed spectrophotometrically to quantitate formazan product, and in addition are viewed microscopically for detection of viable cells and confirmation of protective activity. Drug-treated virus-infected cells are compared with drug-treated noninfected cells and with other appropriate controls (untreated infected and untreated noninfected cells, drug-containing wells without cells, etc.) on the same plate. Data are reviewed in comparison with other tests performed at the same time and a determination as to activity is made.

[1] = system: T4 lymphocytes (CEM cell line); assay: Cell growth / toxicity control in uninfected T4 lymphocytes (CEM), XTT-formazan; assay type: cell-based; details: for IC50: approximate values
Text: as §1, §2

CNc1ccccc1S(=O)(=O)c1ccccc1[N+](=O)[O-] [Example 22, 2-(2-nitrophenylsulfonyl)-N-methylaniline]
TI50 (IC/EC), Therapeutic Index (HIV-1): 1.80 × 10^+2 | Percent of Control, Infected (HIV-1; dose 2.00 × 10^-4 Molar): 6.35% | Percent of Protection (HIV-1; dose 2.00 × 10^-4 Molar, 200 µM): 1.42% | Percent of Control, Infected (HIV-1; dose 2.00 × 10^-5 Molar): 43.49% | Percent of Protection (HIV-1; dose 2.00 × 10^-5 Molar, 20 µM): 40.52% | Percent of Control, Infected (HIV-1; dose 2.00 × 10^-6 Molar): 107.31% | Percent of Protection (HIV-1; dose 2.00 × 10^-6 Molar, 2 µM): 107.69% | Percent of Control, Infected (HIV-1; dose 2.00 × 10^-7 Molar): 99.97% | Percent of Protection (HIV-1; dose 2.00 × 10^-7 Molar, 0.2 µM): 99.97% | Percent of Control, Infected (HIV-1; dose 6.32 × 10^-5 Molar): 5.67% | Percent of Protection (HIV-1; dose 6.32 × 10^-5 Molar, 63.2 µM): 0.71% | Percent of Control, Infected (HIV-1; dose 6.33 × 10^-6 Molar): 100.65% | Percent of Protection (HIV-1; dose 6.33 × 10^-6 Molar, 6.33 µM): 100.68% | Percent of Control, Infected (HIV-1; dose 6.34 × 10^-7 Molar): 110.38% | Percent of Protection (HIV-1; dose 6.34 × 10^-7 Molar, 0.634 µM): 110.93% | Percent of Control, Infected (HIV-1; dose 6.35 × 10^-8 Molar): 88.79% | Percent of Protection (HIV-1; dose 6.35 × 10^-8 Molar, 0.0635 µM): 88.20% | Percent of Control, Uninfected ([1]; dose 2.00 × 10^-4 Molar): 1.98% | Percent of Control, Uninfected ([1]; dose 2.00 × 10^-5 Molar): 36.62% | Percent of Control, Uninfected ([1]; dose 2.00 × 10^-6 Molar): 88.74% | Percent of Control, Uninfected ([1]; dose 2.00 × 10^-7 Molar): 92.07% | Percent of Control, Uninfected ([1]; dose 6.32 × 10^-5 Molar): 15.40% | Percent of Control, Uninfected ([1]; dose 6.33 × 10^-6 Molar): 87.28% | Percent of Control, Uninfected ([1]; dose 6.34 × 10^-7 Molar): 97.06% | Percent of Control, Uninfected ([1]; dose 6.35 × 10^-8 Molar): 96.33% | IC50 ([1]; uninfected CEM cells, 6 days, XTT, read-out: IC50 (50% inhibitory concentration for cell growth)): 14.8 µM

Cc1cc2c(c(S(=O)(=O)c3ccccc3[N+](=O)[O-])c1)NCCC2 [Compound 50, 8-(2-nitrophenyIsulfonyl)6-methyl-1,2,3,4-tetrahydroquinoline]
EC50 (HIV-1; Human immunodeficiency virus 1, CCRF-CEM, 144 h, HIV-1 infected CEM cells, 6 days, XTT, approximate values, read-out: EC50 (50% effective concentration against HIV cytopathic effects)): 0.0751 µM | inhibition at 20 µM (HIV-1; Human immunodeficiency virus 1, CCRF-CEM, dose 2.00 × 10^-5 Molar, read-out: Percent of Protection): 97.4% | inhibition at 2 µM (HIV-1; Human immunodeficiency virus 1, CCRF-CEM, dose 2.00 × 10^-6 Molar, read-out: Percent of Protection): 107% | inhibition at 0.2 µM (HIV-1; Human immunodeficiency virus 1, CCRF-CEM, dose 2.00 × 10^-7 Molar, read-out: Percent of Protection): 86.3% | inhibition at 0.02 µM (HIV-1; Human immunodeficiency virus 1, CCRF-CEM, dose 2.00 × 10^-8 Molar, read-out: Percent of Protection): -2.76% | inhibition at 6.32 µM (HIV-1; Human immunodeficiency virus 1, CCRF-CEM, dose 6.32 × 10^-6 Molar, read-out: Percent of Protection): 109% | inhibition at 0.633 µM (HIV-1; Human immunodeficiency virus 1, CCRF-CEM, dose 6.33 × 10^-7 Molar, read-out: Percent of Protection): 84.2% | inhibition at 0.0634 µM (HIV-1; Human immunodeficiency virus 1, CCRF-CEM, read-out: Percent of Protection, dose 6.34 × 10^-8 Molar): 44.1% | inhibition at 0.00635 µM (HIV-1; Human immunodeficiency virus 1, CCRF-CEM, read-out: Percent of Protection, dose 6.35 × 10^-9 Molar): -3.62% | activity at 20 µM (HIV-1; Human immunodeficiency virus 1, Lymphocyte, dose 2.00 × 10^-5 Molar, read-out: Percent of Control, Infected): 97.6% | activity at 2 µM (HIV-1; Human immunodeficiency virus 1, Lymphocyte, dose 2.00 × 10^-6 Molar, read-out: Percent of Control, Infected): 106% | activity at 0.2 µM (HIV-1; Human immunodeficiency virus 1, Lymphocyte, dose 2.00 × 10^-7 Molar, read-out: Percent of Control, Infected): 87.6% | activity at 0.02 µM (HIV-1; Human immunodeficiency virus 1, Lymphocyte, dose 2.00 × 10^-8 Molar, read-out: Percent of Control, Infected): 6.49% | activity at 6.32 µM (HIV-1; Human immunodeficiency virus 1, Lymphocyte, dose 6.32 × 10^-6 Molar, read-out: Percent of Control, Infected): 108% | activity at 0.633 µM (HIV-1; Human immunodeficiency virus 1, Lymphocyte, dose 6.33 × 10^-7 Molar, read-out: Percent of Control, Infected): 85.7% | activity at 0.0634 µM (HIV-1; Human immunodeficiency virus 1, Lymphocyte, dose 6.34 × 10^-8 Molar, read-out: Percent of Control, Infected): 49.1% | activity at 0.00635 µM (HIV-1; Human immunodeficiency virus 1, Lymphocyte, dose 6.35 × 10^-9 Molar, read-out: Percent of Control, Infected): 5.71% | TI50 (IC/EC), Therapeutic Index (HIV-1): > 2.66 × 10^-2 | IC50 ([1]; Homo sapiens, CCRF-CEM, 144 h, read-out: IC50 (50% inhibitory concentration for cell growth), uninfected CEM cells, 6 days, XTT): > 20 µM | activity at 20 µM ([1]; Homo sapiens, CCRF-CEM, dose 2.00 × 10^-5 Molar, read-out: Percent of Control, Uninfected): 101% | activity at 2 µM ([1]; Homo sapiens, CCRF-CEM, dose 2.00 × 10^-6 Molar, read-out: Percent of Control, Uninfected): 91% | activity at 0.2 µM ([1]; Homo sapiens, CCRF-CEM, dose 2.00 × 10^-7 Molar, read-out: Percent of Control, Uninfected): 87.1% | activity at 0.02 µM ([1]; Homo sapiens, CCRF-CEM, dose 2.00 × 10^-8 Molar, read-out: Percent of Control, Uninfected): 88.4% | activity at 6.32 µM ([1]; Homo sapiens, CCRF-CEM, dose 6.32 × 10^-6 Molar, read-out: Percent of Control, Uninfected): 91.2% | activity at 0.633 µM ([1]; Homo sapiens, CCRF-CEM, dose 6.33 × 10^-7 Molar, read-out: Percent of Control, Uninfected): 89.3% | activity at 0.0634 µM ([1]; Homo sapiens, CCRF-CEM, dose 6.34 × 10^-8 Molar, read-out: Percent of Control, Uninfected): 90.5% | activity at 0.00635 µM ([1]; Homo sapiens, CCRF-CEM, dose 6.35 × 10^-9 Molar, read-out: Percent of Control, Uninfected): 90.2%
